Measurements reported in patent US12703729B2, “GIP agonist compounds and methods” (Zealand Pharma A/S, priority 2014, dated 2026).
Starred links: 1 amine or outer side, 2 acyl side, 3 side chain; linkers in the order of their positions; H or OH if unused. Non-standard residues stand in square brackets, D forms with d. Residues, ends and D or L forms follow the SMILES beside them. Groups on a side chain read outwards from the residue. *: point of attachment. C20 diacid = O=C(O)CCCCCCCCCCCCCCCCCCC(=O)*; γGlu = O=C(O)[C@H](CCC(=O)[*:2])N[*:1]; Palmitoyl = CCCCCCCCCCCCCCCC(=O)*; AEEA = NCCOCCOCC(=O)O; Aib = CC(C)(N)C(=O)O

Experiments:
human GIP R = biological target: T1, human GIP R (Homo sapiens, UniProt P48546); test: cell-based
T1 sequence (P48546 22-466): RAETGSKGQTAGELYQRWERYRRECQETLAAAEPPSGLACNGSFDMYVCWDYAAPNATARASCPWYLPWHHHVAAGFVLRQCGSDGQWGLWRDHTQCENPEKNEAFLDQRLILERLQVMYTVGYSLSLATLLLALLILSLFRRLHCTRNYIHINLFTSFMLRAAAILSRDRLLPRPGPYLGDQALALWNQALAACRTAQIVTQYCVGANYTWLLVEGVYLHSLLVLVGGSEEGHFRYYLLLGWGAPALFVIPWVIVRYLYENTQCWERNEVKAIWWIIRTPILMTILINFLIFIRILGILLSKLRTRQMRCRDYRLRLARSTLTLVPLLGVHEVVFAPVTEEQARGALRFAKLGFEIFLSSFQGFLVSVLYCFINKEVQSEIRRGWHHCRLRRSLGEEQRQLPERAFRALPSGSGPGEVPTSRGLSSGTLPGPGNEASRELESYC

[1] = biological target: T2, human GIP receptor (GIP R) (Homo sapiens, UniProt P48546); test: Activity assay at human GIP receptor, cAMP induction (AlphaScreen), Example 3
T2 sequence (P48546 22-466): T1 sequence (P48546 22-466)

CCCCCCCCCCCCCCCC(=O)N[C@@H](CCC(=O)NCCCC[C@H](NC(=O)[C@H](CCCCN)NC(=O)[C@H](CC(=O)O)NC(=O)[C@H](CC(C)C)NC(=O)[C@H](CCC(=O)O)NC(=O)[C@@H](NC(=O)[C@H](CO)NC(=O)[C@H](Cc1ccc(O)cc1)NC(=O)[C@H](CC(=O)O)NC(=O)[C@H](CO)NC(=O)[C@@H](NC(=O)[C@H](Cc1ccccc1)NC(=O)[C@@H](NC(=O)CNC(=O)[C@H](CCC(=O)O)NC(=O)C(C)(C)NC(=O)[C@@H](N)Cc1ccc(O)cc1)[C@@H](C)O)[C@@H](C)CC)[C@@H](C)CC)C(=O)N[C@@H](Cc1c[nH]cn1)C(=O)N[C@@H](CCC(N)=O)C(=O)N[C@@H](CCC(N)=O)C(=O)N[C@@H](CC(=O)O)C(=O)N[C@@H](Cc1ccccc1)C(=O)N[C@H](C(=O)N[C@@H](CC(N)=O)C(=O)N[C@@H](Cc1c[nH]c2ccccc12)C(=O)N[C@@H](CC(C)C)C(=O)N[C@@H](CC(C)C)C(=O)N[C@@H](C)C(=O)N[C@@H](CCC(N)=O)C(=O)NCC(=O)N1CCC[C@H]1C(=O)N[C@@H](CO)C(=O)N[C@@H](CO)C(=O)NCC(=O)N[C@@H](C)C(=O)N1CCC[C@H]1C(=O)N1CCC[C@H]1C(=O)N1CCC[C@H]1C(=O)N[C@@H](CO)C(N)=O)C(C)C)C(=O)O [Compound 1] (H-Y[Aib]EGTFISDYSIELDKK([γGlu-Palmitoyl])HQQDFVNWLLAQGPSSGAPPPS-NH2) was tested. Which EC50 (human GIP R) did it give?
The EC50 was 0.008 nM.

For CCCCCCCCCCCCCCCC(=O)N[C@@H](CCC(=O)NCCCC[C@H](NC(=O)[C@H](CC(=O)O)NC(=O)[C@H](CC(C)C)NC(=O)[C@H](CCC(=O)O)NC(=O)[C@@H](NC(=O)[C@H](CO)NC(=O)[C@H](Cc1ccc(O)cc1)NC(=O)[C@H](CC(=O)O)NC(=O)[C@H](CO)NC(=O)[C@@H](NC(=O)[C@H](Cc1ccccc1)NC(=O)[C@@H](NC(=O)CNC(=O)[C@H](CCC(=O)O)NC(=O)C(C)(C)NC(=O)[C@@H](N)Cc1ccc(O)cc1)[C@@H](C)O)[C@@H](C)CC)[C@@H](C)CC)C(=O)N[C@H](C(=O)N[C@@H](Cc1c[nH]cn1)C(=O)N[C@@H](CCC(N)=O)C(=O)N[C@@H](CCC(N)=O)C(=O)N[C@@H](CC(=O)O)C(=O)N[C@@H](Cc1ccccc1)C(=O)N[C@H](C(=O)N[C@@H](CC(N)=O)C(=O)N[C@@H](Cc1c[nH]c2ccccc12)C(=O)N[C@@H](CC(C)C)C(=O)N[C@@H](CC(C)C)C(=O)N[C@@H](C)C(=O)N[C@@H](CCC(N)=O)C(=O)NCC(=O)N1CCC[C@H]1C(=O)N[C@@H](CO)C(=O)N[C@@H](CO)C(=O)NCC(=O)N[C@@H](C)C(=O)N1CCC[C@H]1C(=O)N1CCC[C@H]1C(=O)N1CCC[C@H]1C(=O)N[C@@H](CO)C(N)=O)C(C)C)[C@@H](C)CC)C(=O)O [Compound 2] (H-Y[Aib]EGTFISDYSIELDK([γGlu-Palmitoyl])IHQQDFVNWLLAQGPSSGAPPPS-NH2), which EC50 (human GIP R) is on record?
Its EC50 is 0.013 nM.

And the EC50 [1]?
Its EC50 is 0.008 nM.

CCCCCCCCCCCCCCCC(=O)N[C@@H](CCC(=O)NCCCC[C@H](NC(=O)[C@H](CCCCN)NC(=O)[C@H](CCC(=O)O)NC(=O)[C@H](CC(C)C)NC(=O)[C@H](CCC(=O)O)NC(=O)[C@@H](NC(=O)[C@H](CO)NC(=O)[C@H](Cc1ccc(O)cc1)NC(=O)[C@H](CC(=O)O)NC(=O)[C@H](CO)NC(=O)[C@@H](NC(=O)[C@H](Cc1ccccc1)NC(=O)[C@@H](NC(=O)CNC(=O)[C@H](CCC(=O)O)NC(=O)C(C)(C)NC(=O)[C@@H](N)Cc1ccc(O)cc1)[C@@H](C)O)[C@@H](C)CC)[C@@H](C)CC)C(=O)N[C@@H](Cc1c[nH]cn1)C(=O)N[C@@H](CCC(N)=O)C(=O)N[C@@H](CCC(N)=O)C(=O)N[C@@H](CC(=O)O)C(=O)N[C@@H](Cc1ccccc1)C(=O)N[C@H](C(=O)N[C@@H](CC(N)=O)C(=O)N[C@@H](Cc1c[nH]c2ccccc12)C(=O)N[C@@H](CC(C)C)C(=O)N[C@@H](CC(C)C)C(=O)N[C@@H](C)C(=O)N[C@@H](CCC(N)=O)C(=O)NCC(=O)N1CCC[C@H]1C(=O)N[C@@H](CO)C(=O)N[C@@H](CO)C(=O)NCC(=O)N[C@@H](C)C(=O)N1CCC[C@H]1C(=O)N1CCC[C@H]1C(=O)N1CCC[C@H]1C(=O)N[C@@H](CO)C(N)=O)C(C)C)C(=O)O [Compound 3] (H-Y[Aib]EGTFISDYSIELEKK([γGlu-Palmitoyl])HQQDFVNWLLAQGPSSGAPPPS-NH2) was tested. Which EC50 (human GIP R) did it give?
The EC50 was 0.014 nM.

What about the EC50 [1] of the same compound?
The EC50 was 0.014 nM.

With CC[C@H](C)[C@H](NC(=O)[C@H](CCCCN)NC(=O)[C@H](CC(=O)O)NC(=O)[C@H](CC(C)C)NC(=O)[C@H](CCC(=O)O)NC(=O)[C@@H](NC(=O)[C@H](CO)NC(=O)[C@H](Cc1ccc(O)cc1)NC(=O)[C@H](CC(=O)O)NC(=O)[C@H](CO)NC(=O)[C@@H](NC(=O)[C@H](Cc1ccccc1)NC(=O)[C@@H](NC(=O)CNC(=O)[C@H](CCC(=O)O)NC(=O)C(C)(C)NC(=O)[C@@H](N)Cc1ccc(O)cc1)[C@@H](C)O)[C@@H](C)CC)[C@@H](C)CC)C(=O)N[C@@H](Cc1c[nH]cn1)C(=O)N[C@@H](CCC(N)=O)C(=O)N[C@@H](CCC(N)=O)C(=O)N[C@@H](CC(=O)O)C(=O)N[C@@H](Cc1ccccc1)C(=O)N[C@H](C(=O)N[C@@H](CC(N)=O)C(=O)N[C@@H](Cc1c[nH]c2ccccc12)C(=O)N[C@@H](CC(C)C)C(=O)N[C@@H](CC(C)C)C(=O)N[C@@H](C)C(=O)N[C@@H](CCC(N)=O)C(=O)NCC(=O)N1CCC[C@H]1C(=O)N[C@@H](CO)C(=O)N[C@@H](CO)C(=O)NCC(=O)N[C@@H](C)C(=O)N1CCC[C@H]1C(=O)N1CCC[C@H]1C(=O)N1CCC[C@H]1C(=O)N[C@@H](CO)C(=O)N[C@@H](CCCCNC(=O)COCCOCCNC(=O)COCCOCCNC(=O)CC[C@H](NC(=O)CCCCCCCCCCCCCCCCCCC(=O)O)C(=O)O)C(N)=O)C(C)C [Compound 4] (H-Y[Aib]EGTFISDYSIELDKIHQQDFVNWLLAQGPSSGAPPPSK([AEEA-AEEA-γGlu-C20 diacid])-NH2) as the compound, how does the EC50 (human GIP R) read?
Its EC50 is 0.013 nM.

And the EC50 [1]?
The EC50 was 0.014 nM.

Which EC50 [1] does the source give for CCCCCCCCCCCCCCCC(=O)N[C@@H](CCC(=O)NCCCC[C@H](NC(=O)CNC(=O)[C@H](CCCCN)NC(=O)[C@H](CCC(N)=O)NC(=O)[C@H](C)NC(=O)[C@H](CC(C)C)NC(=O)[C@H](CC(C)C)NC(=O)[C@H](Cc1c[nH]c2ccccc12)NC(=O)[C@H](CC(N)=O)NC(=O)[C@@H](NC(=O)[C@H](Cc1ccccc1)NC(=O)[C@H](CC(=O)O)NC(=O)[C@H](CCC(N)=O)NC(=O)[C@H](CCC(N)=O)NC(=O)[C@H](Cc1c[nH]cn1)NC(=O)[C@@H](NC(=O)[C@H](CCCCN)NC(=O)[C@H](CC(=O)O)NC(=O)[C@H](CC(C)C)NC(=O)[C@H](CCC(=O)O)NC(=O)[C@@H](NC(=O)[C@H](CO)NC(=O)[C@H](Cc1ccc(O)cc1)NC(=O)[C@H](CC(=O)O)NC(=O)[C@H](CO)NC(=O)[C@@H](NC(=O)[C@H](Cc1ccccc1)NC(=O)[C@@H](NC(=O)CNC(=O)[C@H](CCC(=O)O)NC(=O)C(C)(C)NC(=O)[C@@H](N)Cc1ccc(O)cc1)[C@@H](C)O)[C@@H](C)CC)[C@@H](C)CC)[C@@H](C)CC)C(C)C)C(N)=O)C(=O)O [Compound 7] (H-Y[Aib]EGTFISDYSIELDKIHQQDFVNWLLAQKGK([γGlu-Palmitoyl])-NH2) here?
The EC50 was 0.032 nM.
